The values below come from PubChem BioAssay AID2046 (NMMLSC, 2009).

Active and inactive are the calls of the source. How the calls were made is not given here.

Sequence of Ras-related protein Rab-2A (Canis lupus familiaris) (P61105 whole entry, looked up): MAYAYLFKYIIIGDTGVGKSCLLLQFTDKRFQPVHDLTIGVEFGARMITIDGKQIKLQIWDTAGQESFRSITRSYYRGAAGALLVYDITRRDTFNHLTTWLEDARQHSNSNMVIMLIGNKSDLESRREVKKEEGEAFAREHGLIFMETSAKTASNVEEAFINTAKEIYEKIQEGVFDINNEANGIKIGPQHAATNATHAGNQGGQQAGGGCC

One assay has as its target Ras-related protein Rab-2A (Canis lupus familiaris) (UniProt P61105). Briefly: Rab2 wildtype GTP-binding inhibitors, SAR follow-up, biochemical, additional analogs, bead-based flow cytometry, multiplex (AID 2046). To be noted: Rab2 wt. (A flow cytometer gives signals particle by particle.)
Turning to `O=C1N=c2ccccc2=C1c1[nH]c(=O)[nH]c1O`, the EC50 result is “inactive”.

As to `O=Nc1c(-c2c(O)[nH]c3c(Cl)cccc23)[nH]c2ccccc12`, the EC50 result is “inactive”.

For `O=C1C(c2c(O)[nH]c3c(F)cccc23)=Nc2ccccc21`, the EC50 result was “inactive”.

In the case of `O=Nc1c(-c2c(O)[nH]c3ccccc23)[nH]c2ccccc12`, the EC50 entry is “inactive”.

Consider `O=C1N=c2ccccc2=C1c1[nH]c(=S)[nH]c1O`, for which the EC50 result is “inactive”.

Turning to `O=C1C(c2c(O)[nH]c3ccccc23)=Nc2ccccc21`, the EC50 entry is “inactive”.

As for `O=Nc1c(-c2c(O)[nH]c3c(Br)cccc23)[nH]c2ccccc12`, the EC50 entry is “inactive”.

Turning to `O=Nc1c(-c2c(O)[nH]c3c(F)cccc23)[nH]c2ccccc12`, the EC50 entry is “inactive”.

On to `O=C1C(c2c(O)[nH]c3ccc(Br)cc23)=Nc2ccccc21`, for which the EC50 result is “inactive”.

On to `O=C1C(c2c(O)[nH]c3c(Cl)cccc23)=Nc2ccccc21`, for which the EC50 result is “inactive”.

As for `O=Nc1c(-c2c(O)[nH]c3ccc(Br)cc23)[nH]c2ccccc12`, the EC50 entry is “inactive”.

Turning to `O=C1C(c2c(O)[nH]c3c(Br)cccc23)=Nc2ccccc21`, the EC50 entry is “inactive”.

Still in this assay, the particulars now being: Rab2 wt, measured here: Ki from fitted EC50.
The Ki is a measure of affinity in units of concentration, obtained from inhibition or displacement. `O=Nc1c(-c2c(O)[nH]c3c(Br)cccc23)[nH]c2ccccc12` showed a Ki of 4.19 µM.

In the case of `COc1ccc2cc([C@@H](C)C(=O)O)ccc2c1`, the Ki stood at 0.11 µM.

In turn, `O=Nc1c(-c2c(O)[nH]c3ccc(Br)cc23)[nH]c2ccccc12` showed a Ki of 4.15 µM.
